Patent US12428456B2, “Peptide directed protein knockdown” (University of British Columbia, priority 2012, dated 2025)
Where two headings read alike, the source gives them in different places.

Legend:
cortical neurons = format: cell-based; conditions: H2O2 300 μM 30 min
Procedure: Primary culture of cortical neurons. Dissociated cultures of rat cortical neurons were prepared from Sprague Dawley rat embryos collected from euthanized mothers 18 days after fertilization as previously described^35. Briefly, hippocampi and cerebral cortices were extracted from embryos and incubated for 30 min in 0.25% trypsin-EDTA. Digested tissues were dissociated by trituration and plated on poly-D-lysine-coated (Sigma, P7280) plates. Plating medium consisted of Neurobasal Media (Invitrogen, 21103-049) supplemented with B27 (Invitrogen, 17504044), glutamic acid (Sigma, G8415) and GlutaMax (Invitrogen, 35050-061). After 2 days, 2/3 of the media was replaced with fresh Neurobasal feeding media consisting of Neurobasal Media, B27 and GlutaMax. Cultures were maintained at 37° C. in a humidified 5% CO2 atmosphere. […]
Assessment of neuronal death. Cytotoxic damage of primary neuron cultures was assessed by measuring LDH released into culture media as previously described^38. […] Peptide toxicity was assessed by treating neurons with 25 μM synthetic peptide or 200 μM recombinant peptide for 24 hrs. […] The amount of LDH in the medium was determined using a LDH cytotoxicity detection kit (Sigma, TOX7) according to the manufacturer's instructions. The absorbance at 490 nm was determined using a microplate reader (μQuant, Bio-TEK instruments), which was adjusted by background reading deduction.

[1] = system: rat middle cerebral artery occlusion focal ischemia model; test: Ischemic brain damage, rat MCAO focal ischemia model (H&E staining); format: in vivo; conditions: 10 mg/kg i.v., 60 min MCAO
Procedure: (§1) Middle cerebral arterial occlusion (MCAO). All animal experiments were performed according to protocols approved by the University of British Columbia Committee on Animal Care. Adult naïve male Sprague-Dawley rats (300-350 g, Charles River) were group housed (3-4 animals/cage) in 12 hr:12 hr light-dark cycles and had free access to rat pellet chow and water prior to surgery. Reversible MCAO with suture-insertion method was performed as described previously^37. Briefly, a nylon suture with a blunted tip was entered through the right external carotid artery of anesthetized rats and advanced to the right internal carotid artery until the right MCA was occluded. After 60 min of occlusion, the rat was reanesthetized to facilitate the removal of the occlusion. Body temperature was maintained at between 36.5 and 37.5° C. throughout the surgical procedure with a heating pad. Peptides (10 mg/kg) or vehicle control (saline; 1 ml/kg) was injected via the jugular vein. Rats were then sewn up and allowed to recover until tissue collection.
Hematoxylin & Eosin (H&E) staining. Slices were mounted and dried on glass slides prior staining. Slides were immersed in Hematoxylin solution (Sigma, MHS1-100ML) for 15 min away from light, followed by 5 min blueing under tap water. Slides were then counterstained with 0.5% Eosin Y (Sigma, E4009-5G) and dipped in ddH2O until the eosin stopped streaking. […]

DAPK1 [2] = molecular target: T1, DAPK1 (Rattus norvegicus, UniProt F1LNN8); test: DAPK1 knockdown in brain, rat MCAO focal ischemia model (immunoblot, immunohistochemistry); format: in vivo; conditions: 10 mg/kg i.v., ischemic vs contralateral side; listed as TATNR2B
T1 construct: decreased the level of endogenous DAPK1 in cultured cortical neurons following NMDA treatment; endogenous in cells; host or cells: primary rat cortical neurons (E18, 14-18 DIV)
T1 sequence (F1LNN8 1-1430): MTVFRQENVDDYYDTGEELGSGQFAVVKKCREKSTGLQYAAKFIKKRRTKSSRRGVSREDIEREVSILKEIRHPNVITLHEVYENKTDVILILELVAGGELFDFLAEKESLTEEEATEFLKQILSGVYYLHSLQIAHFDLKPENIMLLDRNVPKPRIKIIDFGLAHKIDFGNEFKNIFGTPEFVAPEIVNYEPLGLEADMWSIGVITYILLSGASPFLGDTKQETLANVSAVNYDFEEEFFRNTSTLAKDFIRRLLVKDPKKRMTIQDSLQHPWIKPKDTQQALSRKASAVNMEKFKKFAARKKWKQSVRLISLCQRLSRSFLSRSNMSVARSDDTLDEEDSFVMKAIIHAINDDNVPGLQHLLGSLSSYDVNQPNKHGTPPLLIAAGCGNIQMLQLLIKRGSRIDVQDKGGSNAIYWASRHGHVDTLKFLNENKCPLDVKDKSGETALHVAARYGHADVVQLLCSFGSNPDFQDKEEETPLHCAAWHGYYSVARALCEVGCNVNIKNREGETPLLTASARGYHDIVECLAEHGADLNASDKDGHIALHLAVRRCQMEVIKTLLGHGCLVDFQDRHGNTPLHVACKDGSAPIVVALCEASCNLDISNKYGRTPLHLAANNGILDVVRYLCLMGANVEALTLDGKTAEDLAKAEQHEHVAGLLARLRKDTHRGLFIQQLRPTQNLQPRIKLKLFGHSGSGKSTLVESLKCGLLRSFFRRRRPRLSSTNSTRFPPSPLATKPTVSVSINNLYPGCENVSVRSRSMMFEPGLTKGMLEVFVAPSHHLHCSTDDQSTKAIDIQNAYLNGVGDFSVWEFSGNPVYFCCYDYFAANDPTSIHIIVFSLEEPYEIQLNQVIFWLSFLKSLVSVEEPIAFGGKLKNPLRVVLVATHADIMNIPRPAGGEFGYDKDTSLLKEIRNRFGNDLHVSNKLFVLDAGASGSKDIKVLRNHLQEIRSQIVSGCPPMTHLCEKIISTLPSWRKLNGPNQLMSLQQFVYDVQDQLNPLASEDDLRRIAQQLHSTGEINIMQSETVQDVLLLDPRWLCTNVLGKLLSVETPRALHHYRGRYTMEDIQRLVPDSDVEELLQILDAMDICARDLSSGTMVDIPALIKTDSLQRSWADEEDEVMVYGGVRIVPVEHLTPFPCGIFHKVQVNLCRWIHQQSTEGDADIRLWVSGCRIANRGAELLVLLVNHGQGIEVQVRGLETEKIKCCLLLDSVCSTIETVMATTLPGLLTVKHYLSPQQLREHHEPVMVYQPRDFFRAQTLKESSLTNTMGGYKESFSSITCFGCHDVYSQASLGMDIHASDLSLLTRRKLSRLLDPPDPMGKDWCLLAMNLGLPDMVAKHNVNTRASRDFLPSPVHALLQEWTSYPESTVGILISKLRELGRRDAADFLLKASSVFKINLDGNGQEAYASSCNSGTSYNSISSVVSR
Procedure: (§2) Immunoblotting. Immunoblotting assays were carried out as previously described^36. Briefly, proteins were extracted from neurons using a lysis buffer composed of 150 mM NaCl, 50 mM Tris, pH 7.4, 0.1% SDS, 1% NP-40, 0.5% sodium deoxycholate, 1 mM EDTA, 1 mM Na3VO4, and proteinase inhibitor mixture (Thermo Fisher, PI78442). Samples were separated on 10% SDS-PAGE gels, transferred to polyvinylidene difluoride (PVDF) membrane, and immunoblotted with respective antibodies. Blots were enhanced with chemiluminescence detection reagent kit (Fisher, 32106) and visualized with Bio-Rad imager and Quantity One software. Signal intensities from each band was quantified with Bio-Rad Image Lab software, and the bands were analyzed relative to their controls from the same membrane and experiment.
as §1
Immunohistochemistry. Rats were anesthetized and perfused with double-filtered saline and 4% paraformaldehyde (PFA) in PBS. Brains were collected, immersed in 4% PFA before subjected to cryoprotection by 30% sucrose/PBS. After the brains had sunk, they were flash frozen with dry ice before overnight freezing in −80° C. They were then sliced at […] with a cryostat, and stored in 0.1 μM PB (sodium phosphate dibasic and sodium phosphate monobasic). Prior to staining, slices were washed 3×10 min with 0.1 μM PB, permeablized and blocked in 0.1 μM PB with 1% BSA and 0.2% Triton X-100 for 30 min, and stained with anti-DAPK1 (1:100) at 4° C. for 3 days. They were then washed and stained with Alexa 488 (1:1000) at 4° C. overnight before washing and mounting.

DAPK1 [3] = molecular target: T1, DAPK1; test: Knockdown of native DAPK1 in cultured cortical neurons, NMDA stimulation (immunoblot); format: cell-based; conditions: synthetic peptide 25 μM, prior to and during NMDA
Procedure: Cell culture, transfection and treatments. HEK293 cells and COS7 cells were cultured in DMEM (Sigma, D6429-24X500ML) supplemented with 10% Fetal Bovine Serum (Invitrogen, 12483020). Cells were grown to 80% confluence in 6-well plates before transiently transfected with Lipofectamine 2000 (Invitrogen, 11668019), as according to the manufacturer's protocols. Cells were transfected for either 24 or 48 hours at 37° C. before harvesting for biochemical analyses. For experiments involving TAT or His-TAT peptides, unless otherwise specified, peptides were added 1 hour prior to NMDA insult.
Primary culture of cortical neurons. Dissociated cultures of rat cortical neurons were prepared from Sprague Dawley rat embryos collected from euthanized mothers 18 days after fertilization as previously described^35. Briefly, hippocampi and cerebral cortices were extracted from embryos and incubated for 30 min in 0.25% trypsin-EDTA. Digested tissues were dissociated by trituration and plated on poly-D-lysine-coated (Sigma, P7280) plates. Plating medium consisted of Neurobasal Media (Invitrogen, 21103-049) supplemented with B27 (Invitrogen, 17504044), glutamic acid (Sigma, G8415) and GlutaMax (Invitrogen, 35050-061). After 2 days, 2/3 of the media was replaced with fresh Neurobasal feeding media consisting of Neurobasal Media, B27 and GlutaMax. Cultures were maintained at 37° C. in a humidified 5% CO2 atmosphere. Mature neurons (14-18 days in vitro (DIV)) were used for experiments.
as §2
Cellular fractionation. Cytoplasm/nuclei fractionation was performed on cultured cortical neurons (6.0*10^6 cells/100 mm dish). Briefly, cells were washed with ice cold PBS and rocked in lysis buffer for 30 min. Cells were then collected and centrifuged to obtain a rough cytoplasmic and nuclear fraction. Supernatant was collected and further centrifuged to obtain purified cytosolic fraction. The original pellet was washed and vortexed to obtain a nuclear lysis. Mitochondrial fractionation was performed as described in the Pierce Mitochondria Isolation Kit for Cultured Cells (Thermo Scientific, 89874) user guide. Purity was assessed by immunoblotting for the presence of LB1 (nucleus only), HSP90 (cytosol only) and VDAC1 (mitochondria only).

Compound: N[C@H](CCCP(=O)(O)O)C(=O)O [APV, (2R)-amino-5-phosphonopentanoic acid]
- neuronal death (LDH) normalized to naïve non-treated control (set as 1) (cortical neurons; 50 μM, 12 hours after treatment): 2.16±13.8

Compound: catalase
- neuronal death (LDH) normalized to naïve non-treated control (set as 1) (cortical neurons; catalase added, 12 hours): 1.17±1.76

Compound: YGRKKRRQRRRKKNRNKLRRQHSY [TAT-NR2B, CTS-lacking control peptide, reference compound]
- ischemic damage / infarct areas (H&E staining) [1]: partially decreased ischemic damage
- effect on DAPK1 levels in brain tissues (immunoblot) (DAPK1 [2]): no obvious change
- effect on DAPK1 level after NMDA treatment (DAPK1 [3]): did not affect DAPK1 levels
